For one experiment, the system named is male Sprague Dawley rats. In words: Pain from chemotherapeutic drugs: model with paclitaxel (von Frey, Hargreaves). The format is in vivo, rat. The following applies: P≦0.001. How it is done: One of the best validated models for testing this effect is that described hereunder; repeated administration of paclitaxel to rats. The animals (male Sprague Dawley rats weighing 250-300 g; Harlan, Italy) were treated with paclitaxel (2 mg/kg) administered intraperitoneally on alternate days (day 0,2,4,6). The behavioural tests for thermal and mechanical sensitivity were carried out on day 1 (the day following the first injection of paclitaxel), day 10, day 14 (7 days from the last injection), day 24 (peak severity of hyperalgesia and allodynia), day 30 and day 35 (day on which the animals were sacrificed). The animals (n=15) were divided into three experimental groups. The first group (A) received the treatment with paclitaxel, and was treated daily with […], 6 mg/kg by intraperitoneal injection from day 14 to day 35; the second group (B) treated with paclitaxel, was treated from day 14 to 35 with only the vehicle, and finally the third group consisted of naive animals (C). The results obtained are shown in the bar charts in FIGS. 18 and 19.

For the next experiment, the system named is mice. In words: COPD: chronic smoke exposure (6 months), lung morphometry and histology. It is filed as in vivo, mouse. The following applies: smoke 6 months, 4 mg/kg i.p. before daily exposure. On the procedure: The activity of […] was also tested in a model of chronic exposure, which is closer to the aetiology of the human disorder. The mice were exposed to the smoke of 3 cigarettes a day or air for 5 days a week for 6 months, and were treated 30 minutes before the daily exposure with […] 4 mg/kg i.p.
At the end of the 6 months, the mice were sacrificed and a morphometric and histologic examination was conducted on the lung tissue.
The mean interalveolar distance (Lm) and mean internal surface area of the lung (ISA) were measured, being parameters that are correlated with degeneration of lung tissue and with the resultant decrease in respiratory function.

In another experiment the test system is Tg2576 mice. Put plainly: Alzheimer's transgenic murine model Tg2576: behavioural tests and β-amyloid plaques. It is filed as in vivo, mouse. Conditions: 4 and 15 mg/kg i.p. daily, 6th to 13th month. How it is done:
In the transgenic murine model Tg2576 there is no loss of neurons, but there is neuronal deficit and accumulation of β-amyloid plaques. The production of peptides begins to increase rapidly starting from the 6th month of age, accompanied by a progressive cognitive decline. Around the 7th to 8th month, the first plaques develop, which are then diffuse at the 12th month.
The mice were treated with […] at 4 and at 15 mg/kg i.p. daily starting from the 6th month of age up to the 13th. Between the 9th and 10th month and between the 12th and 13th month the mice were submitted to behavioural tests, at the 13th month they were sacrificed and immunohistochemical analyses were performed on brain samples to verify modulation of the β-amyloid plaques.

Another experiment concerns Male Sprague-Dawley rats. Put plainly: Neuropathic pain: SNI model (lesion of the sciatic nerve). The format is in vivo, rat. The text has this:
We evaluated the effect of […] in a model of neuropathic pain: the model of lesion of the sciatic nerve. The characteristic feature of neuropathic pain is that both macroglia and microglia (the cells that support the neurons metabolically) can alter their phenotype (reactive gliosis) as a result of some traumatic-inflammatory peripheral events, duplicated in this model. These phenotypic and functional changes can become permanent and the perception of pain can continue even after its primary cause has disappeared. The cells react to the positive lesion by increasing the glial fibrillary acidic protein (GFAP) and the ionized calcium-binding adapter molecule (IBA1). Male Sprague-Dawley rats (250-300 g; Harlan, Italy) were divided into 5 groups.
Group I was treated with […] daily from day 1 to day 21; group II was treated daily with the drug from day 1 to day 7 and then again with a single dose on day 14; group III was treated with […] on day 1, day 7 and day 14; group IV was treated with only the vehicle and group V was submitted to a sham operation ([…]). […]
Behavioural tests were performed daily from day 0 to day 7 and then on alternate days until day 28. Mechanical allodynia was induced by von Frey filament stimulation and the onset of thermal hyperalgesia was measured using the Ugo Basile apparatus according to Hargreaves' method, 1988.

The test system of the next experiment is male Fischer inbred rats. In words: Model of arthritis: complete Freund adjuvant paw inflammation, plantar test (Hargreaves). The format is in vivo, rat. How it is done: […] was tested for possible antinociceptive and anti-inflammatory activity in a murine model of arthritis.
Unilateral inflammation of the posterior plantar pad of the rat (male Fischer inbred rats) was induced with a local injection of complete Freund adjuvant.
[…], 4 mg/kg, was administered intraperitoneally.
The rats were put in a transparent plastic chamber and were left to acclimatize for 5 minutes before the test.
Thermal stimulus, applied to the surface of the plantar pads of the rats, was produced by a halogen lamp (64607 OSRAM) of 8 V-50 W, through the plastic box; the diameter of the radiant beam measured about 12 mm. The time for withdrawal of the animal's right plantar pad was measured before and after injection of […].
A comparison was conducted on the anti-hyperalgesic and anti-inflammatory effect of a cortisone derivative, methylprednisolone acetate, administered intraperitoneally (5 mg/kg).

The test system of a further experiment is Lewis rats. Put plainly: Acute experimental autoimmune encephalomyelitis (MBP/CFA). It is filed as in vivo, rat. The following applies: for peak of neurologic damage (neuroclinical score 0-5): vehicle peak 3 (day 13). On the procedure: We investigated whether treatment with […], at the onset of the acute form of experimental autoimmune encephalitis (EAE), the murine model of human multiple sclerosis, could induce a functional recovery.
The motor and sensory deficits were classified according to previously assigned “neuronal” clinical scores.
Adult female Lewis rats (200-250 g) were immunized with an intradermal injection, in the hind limbs, of […] of myelin basic protein (MBP) dissolved in 50 microlitres of emulsified saline solution in 50 microlitres of complete Freund adjuvant (CFA).
Starting from the fifth day post-inoculation, the rats were treated daily with […] (0.1 or 1 mg/kg per os) or with the placebo (vehicle).
The animals were monitored daily until day 21 for clinical symptoms; the range of neuroclinical scores extended from 0 (no neurologic symptom) up to a maximum of 5 (complete paralysis of all legs or death).
Inoculation with the MBP/CFA emulsion led to a very evident loss of body weight; this was not changed by the treatment with Immuflam. The animals were divided into three groups of 15: group 1 Immuflam 0.1 mg/kg, group 2 Immuflam 1 mg/kg, group 3 vehicle. They were all treated daily per os from day 5 until sacrifice.

Turning to `C=C(C=O)OC(C=O)n1cnc2c(N)ncnc21` (stereo not shown) [2-[1-(6-aminopurin-9-yl)-2-oxoethoxy]prop-2-enal], the “threshold of mechanical sensitivity (von Frey)” value in the experiment on male Sprague Dawley rats (group A, paclitaxel + IMMUFLAM 6 mg/kg i.p. daily from day 14, day 30, vehicle 11.85±0.61 s) turned out to be 18.28 ± 0.65 s. Further, the “threshold of thermal sensitivity (Hargreaves)” value with male Sprague Dawley rats (paclitaxel + IMMUFLAM 6 mg/kg i.p. for twenty-one days (day 35), vehicle 5.82±0.18 s) amounted to 10.21 ± 0.34 s. Also, in the experiment with mice, the “ISA (mean internal surface area of the lung)” value came to 1153 ± 59 cm^2 and the “Lm (mean interalveolar distance)” value was 36.3 ± 1.1 μm. Also, the “score obtained in moving to Y (Y-maze test)” value in the experiment with Tg2576 mice is “very encouraging”. The “finding and climbing onto the platform, hidden or visible (water maze test)” value in the experiment with Tg2576 mice (vs vehicle) is recorded as “significantly faster than the control”. In addition, the “pain (mechanical allodynia, thermal hyperalgesia)” value with Male Sprague-Dawley rats (6 mg/kg and 30 mg/kg i.p., from first day until 7 days after end of treatment, FIGS. 10-15) was “reduces pain significantly”. For the same compound, in the experiment with Male Sprague-Dawley rats (animals treated daily), the “expression of the proteins of reactive gliosis Ibal and GFAP (immunohistochemical analysis)” value is “returns almost to the normal levels”. Besides, the “time for withdrawal of the plantar pads (thermal stimulus)” value with male Fischer inbred rats (4 mg/kg intraperitoneally, to levels comparable to baseline, FIG. 7) is reported as “significantly increases the time for withdrawal of the plantar pads”. Also, the “action relative to methylprednisolone acetate” value with male Fischer inbred rats (IMMUFLAM 4 mg/kg i.p. vs methylprednisolone acetate 5 mg/kg i.p.) is “more effective action”. The “clinical scores vs vehicle groups” value in the experiment on Lewis rats (between day 12 and day 15, FIG. 4) was “significant differences”. Besides, the “peak of neurologic damage (neuroclinical score 0-5)” value with Lewis rats (group 1, 0.1 mg/kg per os daily from day 5) worked out at 2.3. For the same compound, in the experiment on Lewis rats (group 2, 1 mg/kg per os daily from day 5), the “peak of neurologic damage (neuroclinical score 0-5)” value turned out to be 1.5.

The values above are taken from US20160129005A1, “ADENINE DERIVATIVES HAVING IMMUNOMODULATING ANTI-INFLAMMATORY AND ANALGESIC ACTIVITY” (MEDESTEA RESEARCH & PRODUCTION S.p.A., priority 2011, published 2016).
